Data taken from patent US7528274B2, “Acylthiols and component thiol compositions as anti-HIV and anti-retroviral agents” (The United States of America as represented by the …, priority 2001, dated 2009).
Read-outs that look alike come from different tables or passages of the source.

Experiments:
HIV-1RF = assay: XTT cytoprotection assay, CEM-SS cells infected with HIV-1RF; assay type: cell-based; conditions: for EC50: read-out: EC50 (50% cytoprotection)
From the text: (§1) One exemplary means to determine antiviral activity is with CEM-SS cells and virus (e.g., HIV-1RF) (MOI=0.01) using the XTT (2,3-bis[2-methoxy-4-nitro-5-sulfophenyl]-5-[(phenylamino)carbonyl]-2H-tetrazolium hydroxide) cytoprotection assay, as described by Rice (1993) PNAS 90:9721-9724, and Rice (1997) Antimicrob. Agents Chemother. […] Briefly, cells are infected with HIV-1RF (or other virus to be tested) in the presence of various dilutions of test compounds or control compounds. The cultures are incubated for seven days. […] The cell death is measured by XTT dye reduction. XTT is a soluble tetrazolium dye that measures mitochondrial energy output, similar to MTT. […] Individual assays are done in duplicate using a sister plate method.
as §1, with “{2,3-bis[2-methoxy-4-nitro-5-sulfophenyl]-5- -[(phenylamino)carbonyl]-2H-tetrazolium hydroxide}” for “(2,3-bis[2-methoxy-4-nitro-5-sulfophenyl]-5-[(phenylamino)carbonyl]-2H-tetrazolium hydroxide)”, “Proc. Natl. Acad. Sci. USA 90: 9721-9724,” for “PNAS 90:9721-9724,”, “Agents &” for “Agents”, “and controls.” for “or control compounds.”, “method. […] Compound numbers therein refer to the numbers used in FIG. 1.” for “method.”

[1] = XTT assay, cytotoxicity (cellular growth inhibition) in CEM-SS cells; assay type: cell-based; conditions: human
From the text: as §1
as §1, with “{2,3-bis[2-methoxy-4-nitro-5-sulfophenyl]-5- -[(phenylamino)carbonyl]-2H-tetrazolium hydroxide}” for “(2,3-bis[2-methoxy-4-nitro-5-sulfophenyl]-5-[(phenylamino)carbonyl]-2H-tetrazolium hydroxide)”, “Proc. Natl. Acad. Sci. USA 90: 9721-9724,” for “PNAS 90:9721-9724,”, “Agents &” for “Agents”, “and controls.” for “or control compounds.”, “method. […] Compound numbers therein refer to the numbers used in FIG. 1.” for “method.”

[2] = Human immunodeficiency virus 1, 168 h, HIV-1RF, CEM-SS cells, seven days, XTT
[3] = Human immunodeficiency virus 1, CEM-SS, 168 h

EC50 (HIV-1RF; [2])	EC50 (HIV-1RF; HIV-1RF, CEM-SS cells, seven days, XTT)	Compound	Therapeutic Index (HIV-1RF; HIV-1RF, CEM-SS cells)	IC50 at 7 days [1]	EC50 (HIV-1RF; [3])
720 nM		NC(=O)CNC(=O)c1ccccc1SC(=O)NCCCCl [Compound 85]	153	110 µM	
800 nM		C[C@H](NC(=O)c1ccccc1SC(=O)NCCCCl)C(N)=O [Compound 86]	140	112 µM	
710 nM		C[C@@H](NC(=O)c1ccccc1SC(=O)NCCCCl)C(N)=O [Compound 87]	16	11.4 µM	
850 nM		CCCNC(=O)Sc1ccccc1C(=O)N[C@H](C)C(N)=O [Compound 95]	27	22.6 µM	
1320 nM		CCCNC(=O)Sc1ccccc1C(=O)N[C@@H](C)C(N)=O [Compound 96]	21	27.5 µM	
550 nM		CCCNC(=O)Sc1ccccc1C(=O)NCCC(N)=O [Compound 97]	53	29 µM	
5210 nM		NC(=O)CCNC(=O)c1ccccc1SC(=O)OCCBr [Compound 102]	60.6	> 316 µM	
690 nM		CCNC(=O)Sc1ccccc1C(=O)NCCC(N)=O [Compound 113]	148	103 µM	
420 nM		CCNC(=O)Sc1ccccc1C(=O)N[C@H](C)C(N)=O [Compound 114]	203	86 µM	
590 nM		CCOC(=O)CCNC(=O)Sc1ccccc1C(=O)NCCC(N)=O [Compound 115]	196	117 µM	
510 nM		CCCCNC(=O)Sc1ccccc1C(=O)N[C@H](C)C(N)=O [Compound 117]	64	32.2 µM	
530 nM		CCCCNC(=O)Sc1ccccc1C(=O)NCCC(N)=O [Compound 118]	74	38.7 µM	
300 nM		CCCCCNC(=O)Sc1ccccc1C(=O)N[C@H](C)C(N)=O [Compound 119]	179	54.4 µM	
760 nM		CCCCCCNC(=O)Sc1ccccc1C(=O)N[C@H](C)C(N)=O [Compound 121]	107	81 µM	
304000 nM		CCCCNC(=O)Sc1ccccc1C(=O)NCCS(N)(=O)=O [Compound 130]	0.12	37 µM	

More lines, now with the values behind:

Compound	EC50 (HIV-1RF; [2])	EC50 (HIV-1RF; HIV-1RF, CEM-SS cells, seven days, XTT)	Therapeutic Index (HIV-1RF; HIV-1RF, CEM-SS cells)	IC50 at 7 days [1]	EC50 (HIV-1RF; [3])
NC(=O)CCNC(=O)c1ccccc1SC(=O)c1ccccc1 [Compound 8]	3300 nM		205	676 µM	
COc1ccccc1C(=O)Sc1ccccc1C(=O)NCCC(N)=O [Compound 9]	2700 nM		298	790 µM	
COc1cc(C(=O)Sc2ccccc2C(=O)NCCC(N)=O)cc(OC)c1OC [Compound 10]	3800 nM		>53	> 200 µM	
COc1ccc(C(=O)Sc2ccccc2C(=O)NCCC(N)=O)cc1 [Compound 13]	3700 nM		11	42 µM	
COc1cccc(C(=O)Sc2ccccc2C(=O)NCCC(N)=O)c1 [Compound 14]	2600 nM		251	666 µM	
CC(C)(C)C(=O)Sc1cccc(C(=O)NCCC(N)=O)c1 [Compound 17]	> 100000 nM			112 µM	
NC(=O)CCNC(=O)c1cccc(SC(=O)c2cccnc2)c1 [Compound 18]	149000 nM		>6.7	> 1000 µM	
NC(=O)CCNC(=O)c1ccccc1SC(=O)c1cccnc1 [Compound 19]	2900 nM		161	461 µM	
Cc1cccc(C(=O)Sc2ccccc2C(=O)NCCC(N)=O)c1 [Compound 20]	3600 nM		38	135 µM	
Cc1ccc(C(=O)Sc2ccccc2C(=O)NCCC(N)=O)cc1 [Compound 21]	5200 nM		38	197 µM	
Cc1cc(C)c(C(=O)Sc2ccccc2C(=O)NCCC(N)=O)c(C)c1 [Compound 24]				> 200 µM	
NC(=O)CCNC(=O)c1ccc(Cl)cc1SC(=O)c1cccnc1 [Compound 25]	31800 nM		18	573 µM	
NC(=O)CCNC(=O)c1ccc(Cl)cc1SC(=O)Cc1ccccc1 [Compound 26]	2500 nM		14	35 µM	
CC(C)COC(=O)Sc1ccccc1C(=O)N[C@H](C)C(N)=O [Compound 77]	1370 nM		168	230 µM	
NS(=O)(=O)c1ccc(CNC(=O)c2ccccc2SC(=O)Oc2ccc([N+](=O)[O-])cc2)cc1 [Compound 78]	1580 nM		36	57 µM	
NC(=O)CNC(=O)c1ccccc1SC(=O)OCCCCCl [Compound 80]	3070 nM		65	200 µM	
C[C@H](NC(=O)c1ccccc1SC(=O)OCCCCCl)C(N)=O [Compound 81]	2070 nM		97	200 µM	
C[C@@H](NC(=O)c1ccccc1SC(=O)OCCCCCl)C(N)=O [Compound 82]	2940 nM		68	200 µM	
CCC(C)C(NC(=O)c1ccccc1SC(=O)OCCCCCl)C(N)=O (stereo not shown) [Compound 83]	2160 nM		59	128 µM	
NS(=O)(=O)c1ccc(CNC(=O)c2ccccc2SC(=O)OCCCCCl)cc1 [Compound 84]	2360 nM		27	64.4 µM	
NS(=O)(=O)c1ccc(CNC(=O)c2ccccc2SC(=O)NCCCCl)cc1 [Compound 88]	480 nM		19	9 µM	
C[C@@H](NC(=O)c1ccccc1SC(=O)NCCBr)C(N)=O [Compound 89]			8.7	8 µM	920 nM
NC(=O)CNC(=O)c1ccccc1SC(=O)OCCBr [Compound 101]	1360 nM		232	> 316 µM	
C[C@@H](NC(=O)c1ccccc1SC(=O)OCCBr)C(N)=O [Compound 103]	3340 nM		76	254 µM	
C[C@H](NC(=O)c1ccccc1SC(=O)OCCBr)C(N)=O [Compound 104]	1160 nM		160	186 µM	
NC(=O)CNC(=O)c1ccccc1SC(=O)NCCBr [Compound 110]			3.4	5.23 µM	1530 nM
NC(=O)CCNC(=O)c1ccccc1SC(=O)NCCBr [Compound 111]			10	4.9 µM	480 nM
C[C@H](NC(=O)c1ccccc1SC(=O)NCCBr)C(N)=O [Compound 112]			5	5.2 µM	1050 nM
CCOC(=O)CNC(=O)Sc1ccccc1C(=O)N[C@@H](C)C(N)=O [Compound 116]	530 nM		147	77.6 µM	
NC(=O)C1CN1C(=O)c1ccccc1SC(=O)NC1CCCC1 (stereo not shown) [Compound 132]		810 nM			
